Data published in PubChem BioAssay (NCI).
“And” between values parts separate entries of the source, which are not always exact repeats. Identical values can stand only once.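 Exposure lasted 48 hours, with cells grown in 96-well plates and compounds tested at five concentrations. The concentration for 50% growth inhibition is given as GI50. Definition used: TGI = concentration required for complete inhibition of growth.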

Legend:
Assay in all cases: NCI tumour cell line growth inhibition, 48 h
DLD-1 colon = tested on: DLD-1 colon
DMS 114 small cell lung = tested on: DMS 114 small cell lung
RXF-631 renal = tested on: RXF-631 renal
XF 498 CNS = tested on: XF 498 CNS
BT-549 breast = tested on: BT-549 breast
HS 578T breast = tested on: HS 578T breast
MDA-MB-435 = tested on: MDA-MB-435
MDA-N = tested on: MDA-N
NCI/ADR-RES ovarian = tested on: NCI/ADR-RES ovarian
P388 leukemia = tested on: P388 leukemia
P388/ADR leukemia = tested on: P388/ADR leukemia
SN12K1 renal = tested on: SN12K1 renal

**Q.** What does the source list for COc1cccc(-c2cc(=O)c3cc(C)c(C)c(C(=O)O)c3o2)c1?
**A.** TGI (DLD-1 colon): > 100 µM; TGI (DMS 114 small cell lung): > 100 µM; TGI (RXF-631 renal): > 100 µM; TGI (XF 498 CNS): > 100 µM

**Q.** COc1ccc2c(c1)[n+]([O-])c(/C(C)=N/NC(N)=S)c(C)[n+]2[O-] was tested. Which TGI (BT-549 breast) did it give?
**A.** Its TGI is > 100 µM.

**Q.** And the TGI (DLD-1 colon)?
**A.** Its TGI is > 100 µM.

**Q.** And the TGI (DMS 114 small cell lung)?
**A.** The TGI was > 100 µM.

**Q.** And the TGI (HS 578T breast)?
**A.** The TGI was > 100 µM.

**Q.** What about the TGI (MDA-MB-435) of the same compound?
**A.** Its TGI is > 100 µM.

**Q.** What about the TGI (MDA-N) of the same compound?
**A.** Its TGI is > 100 µM.

**Q.** And the TGI (NCI/ADR-RES ovarian)?
**A.** Its TGI is 96.5 µM.

**Q.** And the TGI (RXF-631 renal)?
**A.** The TGI was > 100 µM.

**Q.** And the TGI (XF 498 CNS)?
**A.** Its TGI is > 100 µM.

**Q.** CCOC(=O)C1Nc2ccc([N+](=O)[O-])cc2[C@H]2OCC[C@@H]12 (stereo partly specified) was tested. Which TGI (DLD-1 colon) did it give?
**A.** The TGI was > 100 µM.

**Q.** And the TGI (DMS 114 small cell lung)?
**A.** Its TGI is > 100 µM.

**Q.** And the TGI (RXF-631 renal)?
**A.** The TGI was > 100 µM.

**Q.** And the TGI (XF 498 CNS)?
**A.** The TGI was > 100 µM.

**Q.** Which TGI (DLD-1 colon) does the source give for CN1CCN2c3ccccc3CC(C#N)(C#N)C2C1 (stereo unspecified) here?
**A.** Its TGI is > 100 µM.

**Q.** And the TGI (DMS 114 small cell lung)?
**A.** Its TGI is > 100 µM.

**Q.** What about the TGI (RXF-631 renal) of the same compound?
**A.** Its TGI is > 100 µM.

**Q.** With CC12CCC(=O)N1c1cc([N+](=O)[O-])ccc1N2 (stereo unspecified) as the compound, how does the TGI (DLD-1 colon) read?
**A.** The TGI was > 100 µM.

**Q.** And the TGI (DMS 114 small cell lung)?
**A.** The TGI was > 100 µM.

**Q.** And the TGI (RXF-631 renal)?
**A.** The TGI was > 100 µM.

**Q.** What about the TGI (XF 498 CNS) of the same compound?
**A.** The TGI was > 100 µM.

**Q.** What does the source list for CC(C)(C)c1cc(O)c2c(c1O)C(=O)CCC2?
**A.** TGI (DLD-1 colon): > 100 µM; TGI (DMS 114 small cell lung): 69.1 µM; TGI (RXF-631 renal): > 100 µM; TGI (XF 498 CNS): 71.2 µM

**Q.** How did the TGI (DLD-1 colon) turn out when C[C@]12CC[C@H](OC(=O)Cc3ccc(N(CCCl)CCCl)cc3)CC1CC[C@@H]1C2CC[C@]2(C)NC(=O)CCC12 (stereo partly specified) was run?
**A.** The TGI was 32.4 µM.

**Q.** And the TGI (DMS 114 small cell lung)?
**A.** The TGI was 21.9 µM.

**Q.** And the TGI (RXF-631 renal)?
**A.** Its TGI is 34.1 µM.

**Q.** What about the TGI (XF 498 CNS) of the same compound?
**A.** The TGI was 28.3 µM.

**Q.** For CS(=O)(=O)OCCCCOS(C)(=O)=O, which GI50 (BT-549 breast) is on record?
**A.** The GI50 was > 250 µM.

**Q.** What about the TGI (BT-549 breast) of the same compound?
**A.** The TGI was > 1000 µM.

**Q.** What about the TGI (DLD-1 colon) of the same compound?
**A.** The TGI was > 236 µM.

**Q.** What about the TGI (DMS 114 small cell lung) of the same compound?
**A.** The TGI was 250 µM.

**Q.** What about the GI50 (HS 578T breast) of the same compound?
**A.** The GI50 was > 555 µM.

**Q.** What about the TGI (HS 578T breast) of the same compound?
**A.** Its TGI is > 1000 µM.

**Q.** What about the GI50 (MDA-MB-435) of the same compound?
**A.** Its GI50 is > 250 µM.

**Q.** What about the TGI (MDA-MB-435) of the same compound?
**A.** The TGI was > 1000 µM.

**Q.** What about the GI50 (MDA-N) of the same compound?
**A.** The GI50 was > 1000 µM.

**Q.** And the TGI (MDA-N)?
**A.** Its TGI is 250 µM and > 1000 µM.

**Q.** And the GI50 (NCI/ADR-RES ovarian)?
**A.** The GI50 was > 1000 µM.

**Q.** And the TGI (NCI/ADR-RES ovarian)?
**A.** The TGI was 250 µM and > 1000 µM.

**Q.** What about the TGI (P388 leukemia) of the same compound?
**A.** Its TGI is 250 µM.

**Q.** What about the TGI (P388/ADR leukemia) of the same compound?
**A.** Its TGI is 246 µM.

**Q.** What about the TGI (SN12K1 renal) of the same compound?
**A.** Its TGI is 224 µM.

**Q.** What does the source list for CCOC(=O)NC(=O)c1cn(CC(=O)NCC(=O)NCC(=O)N2CCN(CCn3c(C)nc(C(N)=O)c3N)CC2)c(=O)[nH]c1=O?
**A.** TGI (DLD-1 colon): > 100 µM; TGI (DMS 114 small cell lung): > 100 µM; TGI (RXF-631 renal): > 100 µM; TGI (XF 498 CNS): > 100 µM

**Q.** How did the TGI (DLD-1 colon) turn out when Cc1cc(Cl)ccc1NC(=O)C1C(=O)C(=O)N(c2ccc(Cl)cc2C)C1=O (stereo unspecified) was run?
**A.** Its TGI is > 100 µM.

**Q.** What about the TGI (DMS 114 small cell lung) of the same compound?
**A.** The TGI was 68.1 µM.

**Q.** And the TGI (RXF-631 renal)?
**A.** Its TGI is > 100 µM.

**Q.** Which results are given for N#CC1=C(c2ccccc2)NN(Cc2ccccc2)C(c2ccc(Cl)cc2)CC1=O (stereo unspecified)?
**A.** TGI (DLD-1 colon): 49.1 µM; TGI (DMS 114 small cell lung): > 100 µM; TGI (RXF-631 renal): 85.3 µM; TGI (XF 498 CNS): 50.1 µM

**Q.** For COC(=O)c1ccc(CS(=O)(=O)c2ccccc2)cc1, which TGI (DLD-1 colon) is on record?
**A.** The TGI was > 100 µM.

**Q.** And the TGI (DMS 114 small cell lung)?
**A.** The TGI was > 100 µM.

**Q.** What about the TGI (RXF-631 renal) of the same compound?
**A.** The TGI was > 100 µM.

**Q.** What about the TGI (XF 498 CNS) of the same compound?
**A.** The TGI was > 100 µM.

**Q.** What does the source list for Cc1ccc2oc(=O)cc(CC(=O)O)c2c1?
**A.** TGI (DLD-1 colon): > 100 µM; TGI (RXF-631 renal): > 100 µM; TGI (XF 498 CNS): 93.1 µM

**Q.** For CC(=O)O[C@H]1CC[C@@]2(C)C(=CC[C@@H]3C2CC[C@]2(C)C(=O)NC(=O)CC32)C1 (stereo partly specified), which TGI (DLD-1 colon) is on record?
**A.** The TGI was > 100 µM.

**Q.** What about the TGI (DMS 114 small cell lung) of the same compound?
**A.** Its TGI is > 100 µM.

**Q.** What about the TGI (RXF-631 renal) of the same compound?
**A.** The TGI was > 100 µM.

**Q.** And the TGI (XF 498 CNS)?
**A.** The TGI was > 100 µM.

**Q.** For Clc1cc(Cl)cc(C2SCc3nc4ccccc4n32)c1 (stereo unspecified), which TGI (DMS 114 small cell lung) is on record?
**A.** The TGI was 44.7 µM.

**Q.** And the TGI (RXF-631 renal)?
**A.** The TGI was 32.9 µM.

**Q.** With CN1C(=O)C(C)(C)NS1(=O)=O as the compound, how does the TGI (DLD-1 colon) read?
**A.** The TGI was > 100 µM.

**Q.** What about the TGI (DMS 114 small cell lung) of the same compound?
**A.** Its TGI is > 100 µM.

**Q.** What about the TGI (RXF-631 renal) of the same compound?
**A.** Its TGI is > 100 µM.

**Q.** What about the TGI (XF 498 CNS) of the same compound?
**A.** Its TGI is > 100 µM.

**Q.** Cc1cc(N(CCC#N)CCC#N)ccc1/C=C(\NC(=O)/C=C/c1ccccc1)NC(=O)Nc1ccccc1C was tested. Which TGI (DLD-1 colon) did it give?
**A.** The TGI was > 100 µM.

**Q.** What about the TGI (DMS 114 small cell lung) of the same compound?
**A.** Its TGI is > 100 µM.

**Q.** What about the TGI (RXF-631 renal) of the same compound?
**A.** The TGI was > 100 µM.

**Q.** CCCCCCCCCCCCCCCCSS(C)(=O)=O was tested. Which TGI (BT-549 breast) did it give?
**A.** The TGI was > 100 µM.

**Q.** What about the TGI (DLD-1 colon) of the same compound?
**A.** The TGI was 37.7 µM.

**Q.** What about the TGI (HS 578T breast) of the same compound?
**A.** Its TGI is > 100 µM.

**Q.** What about the TGI (MDA-MB-435) of the same compound?
**A.** Its TGI is > 100 µM.

**Q.** And the TGI (MDA-N)?
**A.** The TGI was > 100 µM.

**Q.** And the TGI (NCI/ADR-RES ovarian)?
**A.** The TGI was 7.05 µM.

**Q.** What about the TGI (RXF-631 renal) of the same compound?
**A.** Its TGI is 35.6 µM.

**Q.** And the TGI (XF 498 CNS)?
**A.** The TGI was 16.9 µM.

**Q.** How did the TGI (DLD-1 colon) turn out when NC(N)=NS(=O)(=O)c1ccc(NC(=O)c2cccn3c(=O)c4ccccc4nc23)cc1 was run?
**A.** Its TGI is > 100 µM.

**Q.** And the TGI (DMS 114 small cell lung)?
**A.** Its TGI is > 100 µM.

**Q.** What about the TGI (RXF-631 renal) of the same compound?
**A.** Its TGI is > 100 µM.

**Q.** What about the TGI (XF 498 CNS) of the same compound?
**A.** Its TGI is 76.8 µM.

**Q.** Which TGI (DLD-1 colon) does the source give for CC(C)COC(=O)N1N=NC2C3CC(=O)C(O3)C21 (stereo unspecified) here?
**A.** The TGI was > 100 µM.

**Q.** And the TGI (DMS 114 small cell lung)?
**A.** Its TGI is > 100 µM.

**Q.** What about the TGI (RXF-631 renal) of the same compound?
**A.** Its TGI is > 100 µM.

**Q.** Clc1cc2nc[nH]c2cc1Cl was tested. Which TGI (DLD-1 colon) did it give?
**A.** The TGI was > 100 µM.

**Q.** And the TGI (DMS 114 small cell lung)?
**A.** The TGI was > 100 µM.

**Q.** And the TGI (XF 498 CNS)?
**A.** The TGI was > 100 µM.
